# Several values for one entry are separate records, joined by “and”; a condition that tells them apart may be missing. Identical values can stand only once. Like-named read-outs stand apart in the source and are kept apart here.
# Key:
# [1] = tested on: Vesicular Stomatitis Virus (VSV) pseudotyped with EBOV glycoprotein; assay: microbe, parasite or virus in culture; assay type: cell-based, Ebola virus; conditions: HeLa, read-out: IC50, inhibition of EBOV-VSV pseudovirus entry
# Ebola virus = assay: microbe, parasite or virus in culture; assay type: cell-based; conditions: Zaire ebolavirus, Vero 76
# [2] = tested on: Ebola virus/H.sapiens-tc/GIN/2014/Makona-005 (EBOV/Mak); assay: microbe, parasite or virus in culture; assay type: cell-based; conditions: Zaire ebolavirus, HeLa
# [3] = tested on: murine hepatitis virus (MHV); assay: microbe, parasite or virus in culture; assay type: cell-based; conditions: Murine coronavirus, read-out: IC50 versus murine hepatitis virus (MHV)
# [4] = tested on: Ebola virus/H.sapiens-tc/COD/1995/Kikwit-9510621 (EBOV/Kik); assay: microbe, parasite or virus in culture; assay type: cell-based; conditions: Zaire ebolavirus, HeLa
# SARS-CoV-2 Spike RBD = SARS-CoV-2 Spike RBD (Severe acute respiratory syndrome coronavirus 2, UniProt P0DTC2); assay type: binding
# [5] = mouse, microsomes
# in vitro [6] = conditions: African green monkey
# [7] = tested on: Venezuelian equine encephalitis virus; assay: microbe, parasite or virus in culture; assay type: cell-based; conditions: Venezuelan equine encephalitis virus, Vero 76
# [8] = mouse, microsomes, 1 h, pH 7.4
# [9] = guinea pig, microsomes
# [10] = human, microsomes
# SARS-CoV-2 = assay: microbe, parasite or virus in culture; assay type: cell-based
# [11] = tested on: Marburg virus/H.sapiens-tc/KEN/1980/Mt. Elgon-Musoke (MARV/Mus); assay: organism not typed; assay type: cell-based; conditions: HeLa
# HeLa cells = conditions: human
# [12] = human, microsomes, 1 h, pH 7.4
# EBOV Zaire = assay: microbe, parasite or virus in culture; assay type: cell-based, Ebola virus; conditions: Zaire ebolavirus, HeLa
# [13] = tested on: Marburg virus/H.sapiens-tc/AGO/2005/Ang-1379v (MARV/Ang); assay: organism not typed; assay type: cell-based; conditions: HeLa
# in vitro [14] = conditions: human
# [15] = guinea pig, pH 7.4
# Chikungunya virus = assay: microbe, parasite or virus in culture; assay type: cell-based; conditions: Vero 76
# [16] = tested on: Ebola virus/H.sapiens-tc/COD/1976/Yambuku-Mayinga (EBOV/May); assay: microbe, parasite or virus in culture; assay type: cell-based; conditions: Zaire ebolavirus, HeLa
# [17] = microsomes; for t1/2: monkey
# [18] = tested on: Marburg virus (MARV), Musoke strain; assay: organism not typed; assay type: cell-based; conditions: HeLa; n=6; read-out: IC50 ± SEM versus MARV Musoke strain
# Poliovirus 3 = assay: microbe, parasite or virus in culture; assay type: cell-based; conditions: Enterovirus C, Vero 76
# Vero 76 = conditions: African green monkey
# in vitro [19] = conditions: dog
# Hartley guinea pigs = conditions: guinea pig, in vivo
# MERS coronavirus = assay: microbe, parasite or virus in culture; assay type: cell-based; conditions: Middle East respiratory syndrome-related coronavirus, Vero 76
# Influenza A virus H1N1 = assay: microbe, parasite or virus in culture; assay type: cell-based; conditions: H1N1, MDCK
# [20] = Hartley, guinea pig, in vivo, po, 30 mg/kg
# in vivo [21] = conditions: both, Hartley, guinea pig, po
# in vivo [22] = conditions: Hartley, guinea pig, po; for AUC(0-t): AUClast Mean; for Cmax: Cmax Mean; for half-life: T1/2
# Yellow Fever virus = assay: microbe, parasite or virus in culture; assay type: cell-based; conditions: Vero 76
# Tacaribe virus = assay: microbe, parasite or virus in culture; assay type: cell-based; conditions: Mammarenavirus tacaribeense, Vero 76
# [23] = Severe acute respiratory syndrome coronavirus 2, A549-ACE2, read-out: IC50 against SARS-CoV-2
# [24] = read-out: IC50 against SARS-CoV-2
structure (smiles),measurement,setting,value
CCN(CC)CCCC(C)Nc1c2ccc(Cl)cc2nc2ccc(OC)cc12 (centres unmarked) [Quinacrine],IC50,[1],970 nM
same,EC50,Ebola virus,> 12300 nM
same,IC50,[2],1050 ± 260 nM
same,IC50,[3],2300 nM
same,IC50,[4],1410 ± 250 nM
same,binding to SARS-CoV-2 Spike RBD,SARS-CoV-2 Spike RBD,did not demonstrate reproducible binding
same,Clint,[5],110.0
same,"Dextromethorphan: compound, t1/2 normalized to dextromethorphan control",[5],0.8
same,t1/2,[5],0.21 h
same,CC50,in vitro [6],15000 nM
same,EC50,[7],4000 nM
same,Relative Peak Area/Abundance MLM,[8],32.0%
same,Clint,[9],81.3
same,"Dextromethorphan: compound, t1/2 normalized to dextromethorphan control",[9],5.4
same,t1/2,[9],0.285 h
same,Clint,[10],50.5
same,"Dextromethorphan: compound, t1/2 normalized to dextromethorphan control",[10],1.4
same,t1/2,[10],0.458 h
same,IC50,SARS-CoV-2; [23],< 200 nM
same,IC50,SARS-CoV-2; [24],~122 nM
same,IC50,[11],1570 ± 170 nM
same,CC50,HeLa cells,8620 ± 20 nM
same,Relative Peak Area/Abundance HLM,[12],32.3%
same,EC50,EBOV Zaire,350 nM
same,IC50,[13],2940 ± 760 nM
same,CC50,in vitro [14],6200 nM
same,Relative Peak Area/Abundance GPLM,[15],20.7%
same,EC50,Chikungunya virus,3200 nM
same,IC50,[16],1480 ± 650 nM
same,Clint,[17],137.4
same,"Dextromethorphan: compound, t1/2 normalized to dextromethorphan control",[17],1
same,t1/2,[17],0.168 h
same,IC50,[18],775 ± 283 nM
CCN(CC)CCOc1ccc2c(c1)C(=O)c1cc(OCCN(CC)CC)ccc1-2 [Tilorone],IC50,[1],5000 nM
same,EC50,Ebola virus,> 11000 nM
same,EC50,Poliovirus 3,> 25000 nM
same,IC50,[2],1140 ± 380 nM
same,CC50,Vero 76,32000 nM
same,CC50,in vitro [19],19000 nM
same,IC50,[3],~20000 nM
same,tolerability,Hartley guinea pigs,relatively well tolerated
same,mortality and morbidity,"Hartley guinea pigs; po, 100 mg/kg",significant mortality and morbidity
same,IC50,[4],1480 ± 470 nM
same,EC50,MERS coronavirus,3700 nM
same,EC50,Influenza A virus H1N1,> 19000 nM
same,Kd,SARS-CoV-2 Spike RBD; pH5.2,631 nM
same,Kd,SARS-CoV-2 Spike RBD; pH 7.4,339 nM
same,AUClast Mean,[20]; female,1340 ng·h/mL
same,AUClast Mean,[20]; male,1230 ng·h/mL
same,T1/2,[20]; male,13.3 h
same,Clint,[5],13.5
same,"Dextromethorphan: compound, t1/2 normalized to dextromethorphan control",[5],6.3
same,t1/2,[5],1.712 h
same,MTD,in vivo [21],30 mg/kg
same,EC50,[7],18000 nM
same,AUC(0-t),"in vivo [22]; female, 30 mg/kg",1140 ng·h/mL
same,Cmax,"in vivo [22]; female, 30 mg/kg",246 ng/mL
same,half-life,"in vivo [22]; female, 30 mg/kg",14.3 h
same,Tmax,"in vivo [22]; female, 30 mg/kg",0.5 h
same,AUC(0-t),"in vivo [22]; female, 100 mg/kg",3330 ng·h/mL
same,Cmax,"in vivo [22]; female, 100 mg/kg",384 ng/mL
same,half-life,"in vivo [22]; female, 100 mg/kg",17.4 h
same,Tmax,"in vivo [22]; female, 100 mg/kg",1 h
same,AUC(0-t),"in vivo [22]; female, 200 mg/kg",4680 ng·h/mL
same,Cmax,"in vivo [22]; female, 200 mg/kg",448 ng/mL
same,Tmax,"in vivo [22]; female, 200 mg/kg",1 h
same,AUC(0-t),"in vivo [22]; male, 30 mg/kg",1020 ng·h/mL
same,Cmax,"in vivo [22]; male, 30 mg/kg",148 ng/mL
same,half-life,"in vivo [22]; male, 30 mg/kg",15.6 h
same,Tmax,"in vivo [22]; male, 30 mg/kg",1 h
same,AUC(0-t),"in vivo [22]; male, 100 mg/kg",2690 ng·h/mL
same,Cmax,"in vivo [22]; male, 100 mg/kg",225 ng/mL
same,Tmax,"in vivo [22]; male, 100 mg/kg",1 h
same,AUC(0-t),"in vivo [22]; male, 200 mg/kg",5750 ng·h/mL
same,Cmax,"in vivo [22]; male, 200 mg/kg",355 ng/mL
same,half-life,"in vivo [22]; male, 200 mg/kg",29 h
same,Tmax,"in vivo [22]; male, 200 mg/kg",1 h
same,EC50,Yellow Fever virus,> 12000 nM
same,Relative Peak Area/Abundance MLM,[8],62.9%
same,Clint,[9],113.7
same,"Dextromethorphan: compound, t1/2 normalized to dextromethorphan control",[9],3.9
same,t1/2,[9],0.203 h
same,Clint,[10],10.9
same,"Dextromethorphan: compound, t1/2 normalized to dextromethorphan control",[10],6.5
same,t1/2,[10],2.118 h
same,IC50,SARS-CoV-2; [23],< 200 nM
same,IC50,SARS-CoV-2; [24],~180 nM and 180 nM
same,IC50,[11],2050 ± 280 nM
same,CC50,HeLa cells,18000 ± 3040 nM
same,Relative Peak Area/Abundance HLM,[12],54.9%
same,EC50,Tacaribe virus,29000 nM
same,EC50,EBOV Zaire,230 nM
same,IC50,[13],4510 ± 1930 nM
same,CC50,in vitro [14],6500 nM
same,Relative Peak Area/Abundance GPLM,[15],35.5%
same,EC50,Chikungunya virus,4200 nM
same,IC50,[16],1210 ± 1070 nM
same,Clint,[17],14.7
same,"Dextromethorphan: compound, t1/2 normalized to dextromethorphan control",[17],16.9
same,t1/2,[17],1.57 h
same,IC50,[18],1940 ± 304 nM
